Tested on: colorectal cancer cell lines with stably overexpressed or knockdown piR-54265
Assay: IC50 experiments with chemotherapy drugs on colorectal cancer cell lines with overexpressed or knockdown piR-54265
Format: cell-based
Conditions: for cell chemosensitivity (change of IC50): cells after knocking down piR-54265, versus control; for chemoresistance of the colorectal cancer cells (change of IC50): cells overexpressing piR-54265, versus control
From the text: IC50 experiments with the first-line colorectal cancer chemotherapy drugs 5-FU and L-OHP were respectively performed on colorectal cancer cell lines with stably overexpressed or knockdown piR-54265. Subcutaneous xenograft tumors in nude mice were established using the stable cell lines mentioned above, and when a tumor volume reached 250 mm^3, treatment of intraperitoneal injection with 5-FU or L-OHP was started, and the change of the tumor volume was periodically measured.

| cell chemosensitivity (change of IC50) | chemoresistance of the colorectal cancer cells (change of IC50) | SMILES |
| --- | --- | --- |
| improved | enhanced | N[C@@H]1CCCC[C@H]1N.O=C([O-])C(=O)[O-].[Pt+2] [L-OHP] |
| improved | enhanced | O=c1[nH]cc(F)c(=O)[nH]1 [5-FU] |
